Structures are written as SMILES. Where two headings read alike, the source gives them in different places.

The values below come from US11299453B2 (Universität zu Köln, priority 2017, dated 2022).

One series deals with murine and human PSCs. The series is described as follows: Dose response assays, statements over murine and human PSCs. It counts as cell-based. Particulars: for IC50: iPSC, 48 h, read-out: IC50 values, range over murine iPSC line, two murine ESC lines and human iPSC line. On the procedure: (§1) Serial dilutions of DMSO stock solutions of PluriSIn #1 (Sigma-Aldrich, catalog number SML0682) or one of small molecules SM1-SM10, were prepared from 20 mM stock solutions with cell culture medium. Murine PSCs were dissociated with 0.05% trypsin-EDTA, seeded on 0.1% gelatin-coated 96-well plates with a density of 5000 cells/well and cultured in maintenance medium supplemented with 1000 U/ml of mLIF. After 1 day, cells were incubated with 40 μM PluriSIn #1 and derivatives for 72 h or with 0.01-25 μM SMs for 48 h, respectively. For treatment of corresponding PSC-derived CMs with SMs, puromycin-selected miPSC-CMs from day 14 of differentiation were dissociated with 0.25% trypsin-EDTA as described above and plated on 96-well plates (5×10^4 cells/well) which were pre-coated with 5 μg/ml fibronectin (PromoCell, Heidelberg, Germany). After culturing miPSC-CMs with 8 μg/ml puromycin for 2 more days, they were incubated in differentiation medium supplemented with 0.1-100 μM of SMs for 48-72 h. Following small molecule treatment, cell viability was determined with PrestoBlue cell viability reagent (Life Technologies). To this end, cells were washed with PBS (with calcium and magnesium, Life Technologies) and incubated with PrestoBlue reagent diluted in cell culture medium for 40 min at 37° C.
(§2) Fluorescence intensities correlating with the number of viable cells in the wells were measured in black flat-bottom 96-well plates (Greiner Bio-One, Kremsmünster, Austria) with a GeniosPro microplate reader (Tecan, Männedorf, Schweiz).
IC50 values were determined by regression analysis of dose-response curves upon logarithmic transformation. Microscopic images of PSCs were taken with a Zeiss Axiovert 100 inverted microscope and GFP images of CMs were captured with a Zeiss Axiovert 200M fluorescence microscope (both Carl Zeiss, Oberkochen, Germany) and analyzed with Zeiss Axiovision 4.5 software (Carl Zeiss).
In order to quantify compound cytotoxicity, dose response assays were performed by treating PSCs with compound concentrations between nontoxic 0.01 μM and PSC-eliminating 10 μM for 48 h. Murine iPSCs αPIG-AT25, embryonic stem cell lines αPIG44-D3 and R1, and human induced pluripotent stem cell (hiPSC) line NP0014-C6 were used. Cell culture and dose response assays were performed as described above.

Series [1] can be described thus: Cell viability (PrestoBlue) of miPSC-derived cardiomyocytes. It counts as cell-based, murine. The note with it: mouse, αPIG-AT25 miPSC-derived cardiomyocytes (puromycin-selected), 10 μM, 72 h of exposure. As for the experimental part: The differentiation of transgenic mPSCs was initiated in mass cultures as briefly described below. One million cells were transferred per non-adhering 10 cm dish with 14 ml differentiation medium composed of Iscove's Modified Dulbecco's Medium (IMDM) with GlutaMAX (Life Technologies) supplemented with 20% FBS, 1×NEAA and 100 μM β-ME. Embryoid bodies (EBs) from day 2 of differentiation were transferred in a 250 ml spinner flask (CELLSPIN 250, Integra Biosciences, Fernwald, Germany) with a density of 3×10^4 EBs per 200 ml of differentiation medium. On the first 2 days of differentiation medium was supplemented with 50 μg/ml L-ascorbic acid phosphate (AA, Wako pure chemicals industry, Japan) in order to promote the development of cardiac cells. For the selection of GFP-expressing CMs, 50 ml of the medium was exchanged with fresh differentiation medium and 8 μg/ml puromycin (Life Technologies) were supplemented on day 9 of differentiation. Two days later, the cardiac clusters were transferred on non-adhering 10 cm dishes with fresh differentiation medium containing 8 μg/ml puromycin. In the further course of differentiation medium was exchanged every 2-3 days. If not otherwise specified, the purification of GFP-positive CMs with puromycin was continued until day 16 of differentiation. For single cell analyses and transfer of PSC-derived CMs on cell culture plates, cardiac clusters were dissociated with 0.25% trypsin-EDTA (Life Technologies) supplemented with 50 U/ml DNase I (AppliChem, Darmstadt, Germany) for 20-30 min at 37° C. The mPSC-derived CMs were filtered through a polyamide membrane with […] pore size (Sefar, Heiden, Switzerland). Cell numbers were determined with a Neubauer hemocytometer and cells were stored on ice until further use.
as §1, §2
The selectivity of compounds was investigated by comparing their cytotoxicity against undifferentiated iPSCs and iPSC-derived CMs. Murine iPSCs αPIG-AT25 were incubated for 48 h with compounds SM1, SM2, SM4, SM5, SM6 and SM8 in concentrations of 0.01 to 10 μM. Cell culture and cardiac differentiation were performed as described above. Experiments were run at least in quadruplicate. The cell viability was determined using PrestoBlue cell viability reagent.
The viability of salicylic diamine-treated CMs was confirmed by 72 h of exposure to concentrations of 0.01 μM, 0.1 μM, 1 μM, 10 μM and 25 μM of compounds SM1, SM2, SM4, SM5, SM6 and SM8.

Another series deals with miPSC-CM monolayers. As to the kind of experiment: Cardiomyocyte contraction rate by video imaging. It counts as cell-based, murine. Particulars: 10 μM, 48 h treatment. On the procedure: The effect of compound treatment on CM beating frequency was determined by video imaging of iPSC-CM monolayers after exposure to SMs. On day 14 of differentiation puromycin-selected miPSC-CMs were plated on a fibronectin-coated multi-well cell culture plate (10^5 cells/cm^2). […] Following SM treatment, cells were washed twice with PBS (with calcium and magnesium) and cultured for 72 h in fresh differentiation medium. […] The number of beats per each video sequence was quantified and the contraction rate was calculated in beats per minute.
Further, the effect of compound treatment on the CM beating frequency was determined by video imaging of iPSC-CM monolayers after exposure to compounds as described above.

Series [2] relates to αPIG-AT25 miPSC-derived cardiomyocytes. The series is described as follows: Cell viability (PrestoBlue) of miPSC-derived cardiomyocytes. In kind it is cell-based, murine. The note with it: 48 h treatment.
Where [3] appears, read: read-out: decrease of cardiomyocyte viability, in average over SM1, SM4 and SM8.
The mark [4] stands for this setting: read-out: decrease of cardiomyocyte viability.

What is called IC50 is the concentration at which inhibition is half-maximal. As for `Oc1c(CNC2CCCC[C@@H]2NCc2cccc(-c3ccccc3)c2O)cccc1-c1ccccc1` (stereo partly drawn) [SM1, (1S,2S)-N,N′-di[(2-hydroxy-3-phenyl)-benzyl]-1,2-diaminocyclo-hexane], in the series with murine and human PSCs, the IC50 fell in the range of 0.1 to 5 µM. Besides, the cytotoxicity at 72 h, 10 μM in series [1] (setting [3]) came out at 79.8 ± 14.7%.
For the molecule `Oc1c(/C=N/[C@H]2CCCC[C@@H]2NCc2cccc(-c3ccccc3)c2O)cccc1-c1ccccc1` [SM2, (1S,2S)-N-[(2-hydroxy-3-phenyl)-benzyl]-N′-[(2-hydroxy-3-phenyl)-benzylidene]-1,2-diaminocyclohexane], in the series with murine and human PSCs, the IC50 was in the range of 0.1 to 5 µM. Also, in the series on miPSC-CM monolayers, the “decrease of contraction rate of CMs compared to DMSO-treated control” value (“decrease of contraction rate of CMs” below) is 61.02±2.67%. Moreover, the cytotoxicity at 72 h, 10 μM in series [1] (setting [4]) was determined as 18.5 ± 7.06%. The “microscopic analysis of CM monolayers” value in series [2] is on record as “intact CM monolayers”.
Consider `Oc1c(CN[C@@H]2CCCC[C@H]2NCc2cccc(-c3ccccc3)c2O)cccc1-c1ccccc1` [SM4, (1R,2R)-N,N′-di[(2-hydroxy-3-phenyl)-benzyl]-1,2-diaminocyclohexane], for which the IC50 in the series on murine and human PSCs lay in the range of 0.1 to 5 µM. Moreover, the cytotoxicity at 72 h, 10 μM in series [1] (setting [3]) amounted to 79.8 ± 14.7%.
As to `Oc1c(/C=N/[C@@H]2CCCC[C@H]2NCc2cccc(-c3ccccc3)c2O)cccc1-c1ccccc1` [SM5, (1R,2R)-N-[(2-hydroxy-3-phenyl)-benzyl]-N′-[(2-hydroxy-3-phenyl)-benzylidene]-1,2-diaminocyclohexane], the IC50 in the series on murine and human PSCs lay in the range of 0.1 to 5 µM. Also, the cytotoxicity at 72 h, 10 μM in series [1] (setting [4]) was found to be 14.1 ± 13.8%.
For `Oc1ccccc1CN[C@@H]1CCCC[C@H]1NCc1ccccc1O` [SM6, (1R,2R)-N,N′-di(2-hydroxybenzyl)-1,2-diaminocyclohexane], the “effect on pluripotent stem cells” value in the series with murine and human PSCs (10 μM, two day-treatment) is “elimination of pluripotent stem cells”. Besides, the half-inhibitory concentration (IC50) in the series on murine and human PSCs lay in the range of 0.1 to 5 µM. The “decrease of contraction rate of CMs” value in the series with miPSC-CM monolayers came to 24.26±15.71%. Besides, the cytotoxicity at 72 h, 10 μM in series [1] (setting [4]) was 11 ± 13.2%. The “microscopic analysis of CM monolayers” value in series [2] was “intact CM monolayers”.
Turning to `Oc1c(CNC2CCCC[C@@H]2NCc2cccc(-c3ccccc3)c2O)cccc1-c1ccccc1` (stereo partly drawn) [SM8, (1S,2R)-N,N′-di[(2-hydroxy-3-phenyl)-benzyl]-1,2-diaminocyclohexane], the “decrease of contraction rate of CMs” value with miPSC-CM monolayers came to 71.37±26.91%. In series [2], the “microscopic analysis of CM monolayers” value is listed as “intact CM monolayers”.
